Measured values published in US7091207B2, “Method of treating myocardial infarction with PDE-5 inhibitors” (Virginia Commonwealth University, priority 2002, dated 2006).

Assays:
[1] = system: neonatal mouse cardiac myocytes; assay type: cell-based; details: DOX 0.5–5 μM with 1 μM sildenafil
Description: Neonatal mouse myocytes in culture are incubated with 0.5–5 μM of DOX (in the presence or absence of 1 μM sildenafil) for 18 hours. The cells are then incubated with drug free growth medium for an additional 24 hours. Cytotoxicity of DOX is quantitatively assessed by measuring the percentage of cells killed and the amount of creatine kinase (CK) released into the media. In addition, a trypan blue exclusion assay and propidium iodide nuclear stain are used to quantitate cell death. Since DOX induces cardiomyopathy through the release of reactive oxygen species, lipid peroxidation in the cells is also measured as an index of oxidative damage.
Neonatal mouse cardiac myocyte cultures are used for membrane potential studies. Cells in culture are treated with 0.5–5 μM of DOX (in the presence or absence of 1 μM sildenafil) for 18 hours. The cells are then incubated with drug free growth medium for an additional 24 hours. Additional groups are included where the cells are treated with a mitoKATP channel blocker (5-hydroxydecanoate, 100 μM), surface channel blocker (HMR1098, 30 μM) or cyclosporine, a mitochondrial membrane potential (Ψm) blocker (5 μM). For assessment of apoptosis, the TUNEL assay is used, which is an accurate method for distinguishing apoptosis from necrosis by specifically detecting DNA cleavage and chromatin condensation characteristic of apoptosis. Additionally, positive TUNEL staining directly correlates with the more typical biochemical and morphological aspects of apoptosis. Since an understanding of cell morphology is critical for data interpretation, apoptotic morphology is simultaneously assessed according to accepted scientific criteria previously described (Nor-Avi, 1999). The in situ staining of DNA strand breaks detected by the TUNEL assay along with subsequent morphological observation via epifluorescent, confocal, and electron microscopy, provides significant and reliable data regarding the identification of apoptotic cells, even in tissue samples where apoptosis represents a small segment of the population (Manning 1994). In addition, several other key indicators of apoptosis including annexin-V, cytosolic cytochrome c, caspase 3, caspase 8, as well as poly (ADP-ribose) polymerase cleavage in these groups, are measured. Mitochondrial membrane potential (Ψm) using a fluorescent indicator probe, JC-1 (Molecular Probes, Eugene, Oreg.) is measured.

[2] = system: eNOS; test: Cardiac eNOS mRNA (RT-PCR) and protein (Western blot) expression after treatment; assay type: in vivo, mouse; details: 0.7 mg/kg IP
Description: Adult male outbred ICR mice were supplied by Harlan Inc (Indianapolis, Ind.). Viagra pills (Pfizer Inc) were ground into powder and dissolved in saline. The drug solution was filtered (0.45-μm pore size) before intraperitoneal injection. 1400W, an iNOS inhibitor, was obtained from Alexis. We used an isolated perfused mouse heart model subjected to 20 minutes of global ischemia and 30 minutes of reperfusion (Langendorff mode). Myocardial I-R injury was assessed by measuring infarct size, contractile function, and coronary flow as described previously (Xi, 1999). Twenty-eight mice were randomized into the following 4 groups: (n=6 to 9 per group): (1) saline (0.15 mL IP), (2) sildenafil (0.7 mg/kg IP, equivalent to 50 mg Viagra pill used for patients with erectile dysfunction, given 24 hours before I-R), (3) sildenafil+1400W (10 mg/kg IP, 14 given 30 minutes before I-R), and (4) saline+1400W. Measurement of NOS Isoforms Mice were treated with sildenafil (0.7 mg/kg IP), and their hearts were removed at 15, 30, and 45 minutes and 1, 2, 3, 4, and 24 hours after injection (n=3 per group). […] The target bands were identified on the basis of their specific size using DNA standards. iNOS and eNOS proteins were measured by Western blots as described previously. […] The mRNA and protein expression were quantified by scanning each of the RT-PCR or Western blot band using a densitometer (Bioquant 98). […]

CCCc1nn(C)c2c(=O)[nH]c(-c3cc(S(=O)(=O)N4CCN(C)CC4)ccc3OCC)nc12 [sildenafil]
effect on DOX-induced apoptosis indicators [1]: aborted | effect on DOX-induced parameters of injury (CK release, trypan blue uptake, lipid hydroperoxides) [1]: reversed | eNOS mRNA and protein expression [2]: increase | time of peak eNOS mRNA level [2]: 45 min
